Results reported in US9248109B2, “High penetration prodrug compositions of peptides and peptide-related compounds” (priority 2009, dated 2016).
Where a name gives a salt, the structure may show the parent alone. Non-standard residues stand in square brackets, D forms with d. Residues, ends and D or L forms follow the SMILES beside them. *: point of attachment. Arg(NO2) = N=C(NCCC[C@H](N)C(=O)O)N[N+](=O)[O-]; X1 = CCCCO*

System: Sprague Dawley rats
Assay: Anti-obese activity, transdermal, female Sprague Dawley rats 15 weeks old (first experiment)
Format: in vivo, rat
Conditions: for Weight (g) (Day 1): baseline; for effect on body weights of rats (in words): 10, 1 or 0.3 mg/kg transdermal twice per day for 30 days; for effect on food intakes and body weights (in words): administrated transdermally, as low as 0.3 mg/kg in rat, SD rats and DB/DB mice
Method: (§1) In a first experiment, 40 female Sprague Dawley rats (15 weeks old, 318-346 g) were divided into 4 groups. In group A, 0.2 ml of water was administered to the back of rat (n=10) twice per day for 30 days. In Groups B, C, and D, 10 mg/kg, 1 mg/kg, or 0.3 mg/kg of H-Val-Pro-Gly-Pro-Arg(NO2)—OCH(CH3)2.HCl(SEQ ID NO: 197) in 0.2 ml of water was administered transdermally to the back of rat (n=10) twice per day for 30 days respectively.
as §1, with “Dawley (SD)” for “Dawley”, “315-340” for “318-346”, “H-Val-Pro-Gly-Pro-Arg(diAc)-OCH2CH2CH2CH3.HCl(SEQ” for “H-Val-Pro-Gly-Pro-Arg(NO2)—OCH(CH3)2.HCl(SEQ”, “198)” for “197)”
as §1, with “Dawley (SD)” for “Dawley”, “320-345” for “318-346”, “H-Ala-Pro-Gly-Pro-Arg(NO2)—OCH2CH2CH2CH3.HCl(SEQ” for “H-Val-Pro-Gly-Pro-Arg(NO2)—OCH(CH3)2.HCl(SEQ”, “199)” for “197)”
as §1, with “Dawley (SD)” for “Dawley”, “320-350” for “318-346”, “H-Val-Pro-Asp(OEt)-Pro-Arg(NO2)—OCH2CH2CH2CH3.HCl(SEQ” for “H-Val-Pro-Gly-Pro-Arg(NO2)—OCH(CH3)2.HCl(SEQ”, “200)” for “197)”

[1] = 0.3 mg/kg transdermal twice per day for 30 days
[2] = 0.3 mg/kg transdermal twice per day
[3] = 1 mg/kg transdermal twice per day for 30 days
[4] = 1 mg/kg transdermal twice per day
[5] = 10 mg/kg transdermal twice per day for 30 days
[6] = 10 mg/kg transdermal twice per day

Compound: CCCCOC(=O)[C@H](CCCNC(=N)N[N+](=O)[O-])NC(=O)[C@@H]1CCCN1C(=O)CNC(=O)[C@@H]1CCCN1C(=O)[C@H](C)N [H-Ala-Pro-Gly-Pro-Arg(NO2)—OCH2CH2CH2CH3.HCl] (HELM PEPTIDE1{A.P.G.P.[N=C(NCCC[C@H](N[*:1])C(=O)[*:2])N[N+](=O)[O-]].[CCCCO[*:1]]}$$$$V2.0)
- Food intake (per day & per rat) [1]: 22.7 ± 1.8
- Weight (g) (Day 30) [1]: 335.1 ± 4.8 g
- Weight (g) (Day 1) [2]: 335.1 ± 6.2 g
- Food intake (per day & per rat) [3]: 21.8 ± 2.3
- Weight (g) (Day 30) [3]: 323.7 ± 4.4 g
- Weight (g) (Day 1) [4]: 333.6 ± 7.8 g
- Food intake (per day & per rat) [5]: 20.8 ± 2.4
- Weight (g) (Day 30) [5]: 315.4 ± 3.8 g
- Weight (g) (Day 1) [6]: 332.2 ± 7.4 g
- effect on body weights of rats (in words): reduced body weights of rats effectively
- effect on food intakes and body weights (in words): reduced food intakes and body weights

Compound: CCCCOC(=O)[C@H](CCCNC(=N)N[N+](=O)[O-])NC(=O)[C@@H]1CCCN1C(=O)[C@H](CC(=O)OCC)NC(=O)[C@@H]1CCCN1C(=O)[C@@H](N)C(C)C [H-Val-Pro-Asp(OEt)-Pro-Arg(NO2)—OCH2CH2CH2CH3.HCl] (H-VPD(OEt)P[Arg(NO2)]-X1)
- Food intake (per day & per rat) [1]: 22.7 ± 2.5
- Weight (g) (Day 30) [1]: 333.1 ± 3.9 g
- Weight (g) (Day 1) [2]: 333.5 ± 7.1 g
- Food intake (per day & per rat) [3]: 21.9 ± 2.7
- Weight (g) (Day 30) [3]: 326.8 ± 2.8 g
- Weight (g) (Day 1) [4]: 329.8 ± 7.8 g
- Food intake (per day & per rat) [5]: 20.1 ± 3.2
- Weight (g) (Day 30) [5]: 318.1 ± 3.9 g
- Weight (g) (Day 1) [6]: 330.5 ± 8.2 g
- effect on body weights of rats (in words): reduced body weights of rats effectively
- effect on food intakes and body weights (in words): reduced food intake and body weights

Compound: CC(C)OC(=O)[C@H](CCCNC(=N)N[N+](=O)[O-])NC(=O)[C@@H]1CCCN1C(=O)CNC(=O)[C@@H]1CCCN1C(=O)[C@@H](N)C(C)C [H-Val-Pro-Gly-Pro-Arg(NO2)-OCH(CH3)2•HCl, H-Val-Pro-Gly-Pro-Arg(NO2)—OCH(CH3)2.HCl] (HELM PEPTIDE1{V.P.G.P.[N=C(NCCC[C@H](N[*:1])C(=O)[*:2])N[N+](=O)[O-]].[CC(C)O[*:1]]}$$$$V2.0)
- Food intake (per day & per rat) [1]: 22.1 ± 2.5
- Weight (g) (Day 30) [1]: 322.1 ± 4.3 g
- Weight (g) (Day 1) [2]: 335.4 ± 5.2 g
- Food intake (per day & per rat) [3]: 21.1 ± 2.7
- Weight (g) (Day 30) [3]: 313.7 ± 5.1 g
- Weight (g) (Day 1) [4]: 333.1 ± 5.1 g
- Food intake (per day & per rat) [5]: 19.9 ± 2.9
- Weight (g) (Day 30) [5]: 308.4 ± 4.5 g
- Weight (g) (Day 1) [6]: 331.7 ± 6.2 g
- effect on body weights of rats (in words): reduced body weights of rats effectively
- effect on food intakes and body weights (in words): reduced food intakes and body weights

Compound: H-Val-Pro-Gly-Pro-Arg(diAc)-OCH2CH2CH2CH3.HCl
- Food intake (per day & per rat) [1]: 23.0 ± 1.7
- Weight (g) (Day 30) [1]: 347.1 ± 5.7 g
- Weight (g) (Day 1) [2]: 333.1 ± 6.1 g
- Food intake (per day & per rat) [3]: 21.9 ± 1.9
- Weight (g) (Day 30) [3]: 336.7 ± 5.6 g
- Weight (g) (Day 1) [4]: 331.6 ± 6.6 g
- Food intake (per day & per rat) [5]: 20.9 ± 2.2
- Weight (g) (Day 30) [5]: 329.2 ± 4.8 g
- Weight (g) (Day 1) [6]: 334.1 ± 7.5 g
- effect on body weights of rats (in words): reduced body weights of rats effectively
- effect on food intakes and body weights (in words): reduced food intakes and body weights
